# According to patent US5023322A, “Analogs of growth hormone releasing factor (GRF) and a method for the preparation thereof” (MTA Kutatas-es Szervezetelemzo Intezete, priority 1988, dated 1991):
# No end group written: not given here.
# Assays:
# [1] = tested on: growth hormone release; experiment: plasma GH level in anaesthetized rats after intravenous administration; format: in vivo, Wistar Amsterdam rats; conditions: for Plasma GH level: i.v.
# Method: (§1) The biological effects of the compounds according to the invention were tested under in vitro and in vivo conditions. In both instances the growth hormone release was measured as a function of the concentration of the compound administered. The amount of growth hormone released was detected by radioimmune assay with a reliability limit of 95%. The results obtained were compared to those obtained when administering native hpGRF or hGRF(1-29)--NH2, respectively.
# (§2) Mature male Wistar Amsterdam rats, weighing 250-300 g, were anaesthetized intraperitoneally with 60 mg/kg of pentobarbital. The peptides to be tested were dissolved in 0.9% by weight aqueous saline solution, and were administered to the animals 20 minutes after anaesthesy as an intravenous (i.v.), intramuscular (i.m.) or subcutaneous (s.c.) injection. Blood samples were taken from the jugular vein of the animals prior to the administration of the active agent (-1 minute) and 5, 15 and 30 minutes after challenge. The amount of growth hormone released was measured by radioimmune assay.
# Therefore, when the compounds were administered intravenously, the percentage increase in activity was calculated by relating the amount of growth hormone released upon administering a compound of the invention to the amount of growth hormone released upon administering hGRF(1-29)--NH2.
# [2] = tested on: growth hormone release; experiment: plasma GH level in anaesthetized rats after subcutaneous administration; format: in vivo, Wistar Amsterdam rats; conditions: administered subcutaneously, in the doses tested
# Method: as §1, §2
# (§3) Therefore, in these tests the activity of the compounds according to the invention was characterized by the percentage increase in the plasma growth hormone level related to that originally present in the plasma (basal value).
# [3] = tested on: growth hormone release; experiment: plasma GH level in anaesthetized rats after intramuscular administration; format: in vivo, Wistar Amsterdam rats; conditions: administered intramuscularly, in the doses tested
# Method: as §1, §2, §3
# [4] = literature; cited from earlier work
# [5] = tested on: milk production; conditions: cattle; J. Dairy Science 70, 2511 (1987) and 71, 92 (1988); cited from earlier work
Substance,release of growth hormone (in words) ([1]; administered intravenously),"Plasma GH level ([1]; 0.8 μg/kg, +5 min)","Plasma GH level ([1]; 0.8 μg/kg, +15 min)","Plasma GH level ([1]; 0.8 μg/kg, +30 min)","Plasma GH level ([1]; 0.8 μg/kg, -1 min (before administration))","Plasma GH level ([1]; 2 μg/kg, +5 min)","Plasma GH level ([1]; 2 μg/kg, +15 min)","Plasma GH level ([1]; 2 μg/kg, +30 min)","Plasma GH level ([1]; 2 μg/kg, -1 min (before administration))",activity on growth hormone release (in words) [2],activity on growth hormone release (in words) [3],biological activity compared to the native hGRF(1-44)--NH2 (in words) [4],"milk production of cattles, quality and quantity (in words) [5]"
"hGRF(1-29)--NH2 (YADAIFTNSYRKVLGQLSARKLLQDIMSR-NH2; UniProt P01286 32-60, looked up, fragment) [Standard, fragment of the native human peptide amide extending from the N-terminal through residue 29; applied as standard]",stimulated the release of growth hormone,311.00 ng/mL,93.60 ng/mL,48.73 ng/mL,80.46 ng/mL,1061.11 ng/mL,393.13 ng/mL,109.22 ng/mL,125.22 ng/mL,practically inactive,practically inactive,favourable activity,influenced favourably
"human GRF(1-44)--NH2 (YADAIFTNSYRKVLGQLSARKLLQDIMSRQQGESNQERGARARL-NH2; UniProt P01286 32-75, looked up) [native human GRF, a peptide amide of 44 residues]",–,–,–,–,–,–,–,–,–,–,–,–,influenced favourably
